Data reported in ChEMBL document CHEMBL1133871, “4-Aminopiperidine ureas as potent selective agonists of the human beta(3)-adrenergic receptor” (Bioorg Med Chem Lett, 2001).
The source made the active and inactive calls. The calls are words filed in the database; no cut-off is given here.

How the values were obtained:
[1] = molecular target: Beta-1 adrenergic receptor (Homo sapiens, UniProt P08588); assay: In vitro agonistic activity assessed by measurement of cAMP accumulation level in CHO cells expressing human beta1-AR receptor; type: functional, cell-based
Chain of Beta-1 adrenergic receptor (P08588 whole entry): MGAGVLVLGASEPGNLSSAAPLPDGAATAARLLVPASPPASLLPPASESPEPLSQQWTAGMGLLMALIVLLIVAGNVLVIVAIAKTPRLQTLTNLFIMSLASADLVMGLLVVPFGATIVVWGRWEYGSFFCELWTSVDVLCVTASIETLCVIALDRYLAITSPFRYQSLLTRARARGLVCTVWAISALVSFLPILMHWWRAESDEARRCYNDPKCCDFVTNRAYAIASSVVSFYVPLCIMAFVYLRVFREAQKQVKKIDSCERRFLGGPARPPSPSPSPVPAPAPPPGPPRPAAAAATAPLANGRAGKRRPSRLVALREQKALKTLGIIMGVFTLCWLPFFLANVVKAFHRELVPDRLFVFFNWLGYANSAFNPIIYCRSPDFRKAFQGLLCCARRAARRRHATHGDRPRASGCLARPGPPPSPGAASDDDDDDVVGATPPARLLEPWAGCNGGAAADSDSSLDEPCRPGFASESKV

[2] = molecular target: T1, Adrenergic receptor beta (Homo sapiens, UniProt P08588+P07550+P13945); assay: In vitro intrinsic activity is given as percentage of maximal stimulation relative to isoproterenol; Not active; type: functional
[3] = molecular target: T1, Adrenergic receptor beta; assay: In vitro agonistic activity against cAMP accumulation level in CHO cells expressing human beta-AR receptor; type: functional, cell-based
[4] = molecular target: T2, Beta-3 adrenergic receptor (Homo sapiens, UniProt P13945); assay: […] of cAMP accumulation level in CHO cells expressing human beta3-AR receptor at 10 uM concentration; type: functional, cell-based
Target sequence in this assay (P13945 whole entry, looked up): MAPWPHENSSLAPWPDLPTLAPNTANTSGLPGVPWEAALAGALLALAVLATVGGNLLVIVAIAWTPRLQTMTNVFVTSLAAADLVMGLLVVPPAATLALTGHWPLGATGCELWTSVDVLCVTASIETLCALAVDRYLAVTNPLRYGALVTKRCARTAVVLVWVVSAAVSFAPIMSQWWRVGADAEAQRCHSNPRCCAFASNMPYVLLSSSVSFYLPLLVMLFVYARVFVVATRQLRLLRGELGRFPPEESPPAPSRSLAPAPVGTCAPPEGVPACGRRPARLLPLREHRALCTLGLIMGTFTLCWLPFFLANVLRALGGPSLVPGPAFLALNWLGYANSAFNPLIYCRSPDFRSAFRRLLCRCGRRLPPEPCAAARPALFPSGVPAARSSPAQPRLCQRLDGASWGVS

[5] = molecular target: T2, Beta-3 adrenergic receptor; assay: In vitro intrinsic activity is given as percentage of maximal stimulation relative to isoproterenol; In active; type: functional
Target sequence in this assay (P13945 whole entry): as the sequence (P13945 whole entry, looked up) above

[6] = molecular target: T2, Beta-3 adrenergic receptor; assay: In vitro agonistic activity assessed by measurement of cAMP accumulation level in CHO cells expressing human beta3-AR receptor; In active; type: functional, cell-based
Target sequence in this assay (P13945 whole entry): as the sequence (P13945 whole entry, looked up) above

[7] = molecular target: T2, Beta-3 adrenergic receptor; assay: In vitro agonistic activity assessed by measurement of cAMP accumulation level in CHO cells expressing human beta3-AR receptor; type: functional, cell-based
Target sequence in this assay (P13945 whole entry): as the sequence (P13945 whole entry, looked up) above

Row | EC50 [1] | Structure (SMILES) | other results
1 | 943 nM | CC(C)NC(=O)N1CCC(Nc2ccc(CCNC[C@H](O)COc3ccc(O)cc3)cc2)CC1 | –
2 | 254 nM | O=C(NCc1ccc(Cl)cc1Cl)N1CCC(Nc2ccc(CCNC[C@H](O)COc3ccc(O)cc3)cc2)CC1 | Intrinsic activity [2]: inactive
3 | 2640 nM | CS(=O)(=O)Nc1cc([C@@H](O)CNCCc2ccc(NC3CCN(C(=O)NCc4cc(F)ccc4F)CC3)cc2)ccc1O | EC50 [3]: 10 nM
4 | – | CCCCCCCCNC(=O)N1CCC(Nc2ccc(CCNC[C@H](O)c3ccc(O)c(C(N)=O)c3)cc2)CC1 | Intrinsic activity [4]: 42%
5 | 350 nM | CNC(=O)N1CCC(Nc2ccc(CCNC[C@H](O)COc3ccc(O)cc3)cc2)CC1 | –
6 | – | CCCCCCCCNC(=O)N1CCC(Nc2ccc(CCNC[C@H](O)COc3cccc4[nH]c(O)nc34)cc2)CC1 | EC50 [5]: Not Active; EC50 [6]: Not Active
7 | 522 nM | O=C(NCc1cc(F)ccc1F)N1CCC(Nc2ccc(CCNC[C@H](O)COc3ccc(O)cc3)cc2)CC1 | Intrinsic activity [2]: inactive
8 | 460 nM | O=C(NCc1ccc(F)cc1F)N1CCC(Nc2ccc(CCNC[C@H](O)COc3ccc(O)cc3)cc2)CC1 | Intrinsic activity [2]: inactive
9 | 88 nM | CCCCCCCCNC(=O)N1CCC(Nc2ccc(CCNC[C@H](O)COc3ccc(O)c4c3CCC(=O)N4)cc2)CC1 | –
10 | – | CCCCCCCCNC(=O)N1CCC(Nc2ccc(CCNC[C@H](O)COc3ccc(F)cc3)cc2)CC1 | inhibition [4]: 37%
11 | 423 nM | CS(=O)(=O)Nc1cc(OC[C@@H](O)CNCCc2ccc(NC3CCN(C(=O)NCc4cc(F)ccc4F)CC3)cc2)ccc1O | –
12 | 260 nM | O=C(NCc1ccccc1F)N1CCC(Nc2ccc(CCNC[C@H](O)COc3ccc(O)cc3)cc2)CC1 | Intrinsic activity [2]: inactive
13 | 750 nM | O=C(NCc1c(F)cccc1F)N1CCC(Nc2ccc(CCNC[C@H](O)COc3ccc(O)cc3)cc2)CC1 | Intrinsic activity [2]: inactive
14 | 610 nM | CCCCCCCCNC(=O)N1CCC(Nc2ccc(CCNC[C@H](O)COc3ccc(O)cc3)cc2)CC1 | EC50 [7]: 8 nM
15 | 511 nM | NC(=O)N1CCC(Nc2ccc(CCNC[C@H](O)COc3ccc(O)cc3)cc2)CC1 | –

Row | Structure (SMILES) | EC50 [1] | other results
16 | CCN(CC)C(=O)N1CCC(Nc2ccc(CCNC[C@H](O)COc3ccc(O)cc3)cc2)CC1 | 164 nM | –
17 | O=C(NCCCC1CCCC1)N1CCC(Nc2ccc(CCNC[C@H](O)COc3ccc(O)cc3)cc2)CC1 | 187 nM | –
18 | O=C(NC1CCCCC1)N1CCC(Nc2ccc(CCNC[C@H](O)COc3ccc(O)cc3)cc2)CC1 | 85 nM | –
19 | O=C(NCc1ccc(F)cc1)N1CCC(Nc2ccc(CCNC[C@H](O)COc3ccc(O)cc3)cc2)CC1 | 109 nM | EC50 [7]: 41 nM
